For one compound, IC50 results are on record in patent publication US10570156B2, “Substituted imidazo[1,2-a]pyridines as PDE-10 inhibitors” (SUNOVION PHARMACEUTICALS INC., priority 2011, dated 2020).

For this assay, the target named is recombinant human PDE-10 enzyme (Homo sapiens (Human), UniProt Q9Y233). Kind of assay: human PDE-10 inhibition assay (IMAP PDE Fluorescence Polarization enzyme assay). Format: biochemical. To be noted: Fluorescein-labeled cAMP/cGMP substrate, 40-minute incubation at 37° C. The protocol: In one embodiment, the compounds provided herein were assayed for their ability to inhibit human PDE-10A. In one embodiment, the activities of the compounds were determined using the Molecular Devices IMAP PDE Fluorescence Polarization assay using recombinant human PDE-10 enzyme expressed in a baculoviral system. Briefly, 10 μL of a compound (0.2 nM-20 μM) was added to either a 96-well half area black plate or a 384-well black plate along with 10 μL of Fluorescein-labeled cAMP/cGMP substrate as per manufacturer's instructions and 10 μL of PDE enzyme (activity 0.1 U). Following a 40-minute incubation at 37° C., 60 μL of IMAP binding reagent was added. The plate was then read on a Perkin Elmer Victor (480-535 nm). The data was analyzed using Prism Software (GraphPad Inc, San Diego, Calif.).
Sequence of recombinant human PDE-10 enzyme (Q9Y233 whole entry): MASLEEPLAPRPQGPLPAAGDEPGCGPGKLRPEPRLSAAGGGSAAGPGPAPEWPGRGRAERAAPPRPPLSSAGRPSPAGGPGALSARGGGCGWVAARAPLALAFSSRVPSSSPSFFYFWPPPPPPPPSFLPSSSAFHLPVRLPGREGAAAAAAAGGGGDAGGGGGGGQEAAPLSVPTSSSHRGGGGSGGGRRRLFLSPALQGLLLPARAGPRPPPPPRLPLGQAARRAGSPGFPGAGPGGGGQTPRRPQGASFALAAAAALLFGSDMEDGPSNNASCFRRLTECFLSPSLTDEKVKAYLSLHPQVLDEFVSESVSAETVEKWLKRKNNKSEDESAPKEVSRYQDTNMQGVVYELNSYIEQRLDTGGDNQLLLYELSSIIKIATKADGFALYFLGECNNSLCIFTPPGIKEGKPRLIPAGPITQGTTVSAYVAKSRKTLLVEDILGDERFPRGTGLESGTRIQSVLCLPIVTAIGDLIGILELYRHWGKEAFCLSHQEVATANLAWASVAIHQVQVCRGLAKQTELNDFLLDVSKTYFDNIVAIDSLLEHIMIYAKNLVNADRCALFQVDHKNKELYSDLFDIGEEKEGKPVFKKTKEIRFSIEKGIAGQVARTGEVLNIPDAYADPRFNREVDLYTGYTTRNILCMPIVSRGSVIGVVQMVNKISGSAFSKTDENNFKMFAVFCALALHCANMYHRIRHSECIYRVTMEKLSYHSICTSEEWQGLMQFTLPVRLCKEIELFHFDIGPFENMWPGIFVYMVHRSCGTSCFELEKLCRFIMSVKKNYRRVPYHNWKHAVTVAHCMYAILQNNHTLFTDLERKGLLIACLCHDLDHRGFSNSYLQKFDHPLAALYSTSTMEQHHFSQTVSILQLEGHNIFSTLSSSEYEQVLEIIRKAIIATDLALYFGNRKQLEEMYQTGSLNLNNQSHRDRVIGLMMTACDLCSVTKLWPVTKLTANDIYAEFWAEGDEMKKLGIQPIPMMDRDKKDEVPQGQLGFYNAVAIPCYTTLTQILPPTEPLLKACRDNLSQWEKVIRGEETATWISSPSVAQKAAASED

Structures are written as SMILES. Bounds are passed on as bounds.

In the case of `Cc1ncc(C)n2nc(CCc3nc4c(C)ncc(C)n4n3)nc12` [Compound 2], the IC50 was over 500 nM.
